The subject of this assay is α-SMA expression in MRC5 cells. In words: inhibition of α-SMA expression in MRC5 cells, image screening method. In kind it is cell-based. Conditions: Homo sapiens; MRC5, compound 10 μM, TGF-β1 5 ng/mL, 72 hours, relative to TGF-β1 alone; read-out: Inhibitory activity (α-SMA expression inhibition). As to the method: The ability of the compounds according to the present invention to inhibit the expression of α-SMA, which is a biomarker for pulmonary fibrosis, was evaluated by an image screening method. MRC5 cells were treated with the compound (10 μM) or DMSO under the condition of TGF-31 (5 ng/mL). 72 hours later, the cells were fixed with a 4% formaldehyde solution, treated with a 0.1% Triton-x100 solution, and treated with a 1% BSA solution to mask non-specific binding caused by antibodies. Anti-α-SMA-FITC (Sigma Aldrich) and anti-GAPDH (Cell Signaling Technology) were used as primary antibodies, and anti-mouse-TRITC was used as a secondary antibody. Imaging and analysis of the results were performed using Cytation5_Gen5_Version 3.12.08 (Bio Tek). Relative to the α-SMA expression level when TGF-31 was treated alone, the α-SMA expression level when both the compound and TGF-31 were treated was calculated as the ability of α-SMA expression inhibition of the corresponding compound.

15 molecules from patent publication US20260265189A1, “NOVEL COMPOUND, AND PHARMACEUTICAL COMPOSITION COMPRISING SAME AS ACTIVE INGREDIENT” (SAPIENSBIO INC., priority 2022, published 2026) can be followed below.

In the case of `O=C(N[C@@H]1CCOC1)N1CCN(c2cccnc2)c2ccccc21` [Compound 73, (R)-4-(pyridin-3-yl)-N-(tetrahydrofuran-3-yl)-3,4-dihydroquinoxaline-1(2H)-carboxamide], the inhibition at 10 µM fell in the range of 30 to 50%.

`O=C(NCC1CC1)N1CCN(c2ccncc2)c2ccccc21` [Compound 74, N-(cyclopropylmethyl)-4-(pyridin-4-yl)-3,4-dihydroquinoxaline-1(2H)-carboxamide]: the inhibition at 10 µM was 30 to 50%.

Take `N#Cc1ccc(N2CCN(C(=O)NC[C@H]3CCNC3)c3ccccc32)cc1` [Compound 79, (S)-4-(4-cyanophenyl)-N-(pyrrolidin-3-ylmethyl)-3,4-dihydroquinoxaline-1(2H)-carboxamide]: the inhibition at 10 µM was in the range of 10 to 30%.

As for `O=C(N[C@H]1CCNC1)N1CCN(c2cnccn2)c2ccccc21` [Compound 80, (S)-4-(pyrazin-2-yl)-N-(pyrrolidin-3-yl)-3,4-dihydroquinoxaline-1(2H)-carboxamide], the inhibition at 10 µM fell in the range of 10 to 30%.

In the case of `CC(C)N1CC[C@H](NC(=O)N2CCN(c3cnccn3)c3ccccc32)C1` [Compound 81, (S)-N-(1-isopropylpyrrolidin-3-yl)-4-(pyrazin-2-yl)-3,4-dihydroquinoxaline-1(2H)-carboxamide], the inhibition at 10 µM lay within 10 to 30%.

On to `CC(C)CN1CCC(NC(=O)N2CCN(c3cnccn3)c3ccccc32)CC1` [Compound 82, N-(1-isobutylpiperidin-4-yl)-4-(pyrazin-2-yl)-3,4-dihydroquinoxaline-1(2H)-carboxamide], for which the inhibition at 10 µM fell in the range of 10 to 30%.

Turning to `CC(C)N1CCC(NC(=O)N2CCN(c3cnccn3)c3ccccc32)CC1` [Compound 83, N-(1-isopropylpiperidin-4-yl)-4-(pyrazin-2-yl)-3,4-dihydroquinoxaline-1(2H)-carboxamide], the inhibition at 10 µM was 10 to 30%.

With `O=C(N[C@@H]1CCNC1)N1CCN(Cc2ccccc2)c2ccccc21` [Compound 84, (R)-4-benzyl-N-(pyrrolidin-3-yl)-3,4-dihydroquinoxaline-1(2H)-carboxamide], the inhibition at 10 µM is 30 to 50%.

Take `N[C@H]1CCN(C(=O)N2CCN(Cc3ccccc3)c3ccccc32)C1` [Compound 85, (S)-(3-aminopyrrolidin-1-yl)(4-benzyl-3,4-dihydroquinoxalin-1(2H)-yl)methanone]: the inhibition at 10 µM lay in the range of 30 to 50%.

As for `CN[C@H]1CCN(C(=O)N2CCN(Cc3ccccc3)c3ccccc32)C1` [Compound 86, (S)-(4-benzyl-3,4-dihydroquinoxalin-1(2H)-yl)(3-(methylamino)pyrrolidin-1-yl)methanone], the inhibition at 10 µM was 10 to 30%.

As to `CN1CC[C@@H](NC(=O)N2CCN(Cc3ccccc3F)c3ccccc32)C1` [Compound 87, (R)-4-(2-fluorobenzyl)-N-(1-methylpyrrolidin-3-yl)-3,4-dihydroquinoxaline-1(2H)-carboxamide], the inhibition at 10 µM lay in the range of 50 to 70%.

Take `CN1CCC(NC(=O)N2CCN(Cc3ccccc3F)c3ccccc32)CC1` [Compound 88, 4-(2-fluorobenzyl)-N-(1-methylpiperidin-4-yl)-3,4-dihydroquinoxaline-1(2H)-carboxamide]: the inhibition at 10 µM fell in the range of 50 to 70%.

Turning to `CN1CCC(CNC(=O)N2CCN(Cc3ccccc3F)c3ccccc32)CC1` [Compound 89, 4-(2-fluorobenzyl)-N-((1-methylpiperidin-4-yl)methyl)-3,4-dihydroquinoxaline-1(2H)-carboxamide], the inhibition at 10 µM fell in the range of 50 to 70%.

As for `CN1CC[C@H](CNC(=O)N2CCN(Cc3ccccc3F)c3ccccc32)C1` [Compound 90, (R)-4-(2-fluorobenzyl)-N-((1-methylpyrrolidin-3-yl)methyl)-3,4-dihydroquinoxaline-1(2H)-carboxamide], the inhibition at 10 µM was in the range of 30 to 50%.

On to `O=C(N[C@@H]1CCNC1)N1CCN(Cc2ccc(F)cc2)c2ccccc21` [Compound 91, (R)-4-(4-fluorobenzyl)-N-(pyrrolidin-3-yl)-3,4-dihydroquinoxaline-1(2H)-carboxamide], for which the inhibition at 10 µM fell in the range of 50 to 70%.
